The record followed here is patent publication US8252807B2, “Methods of inhibiting the interaction between S100 and the receptor for advanced glycation end-products” (Board of Regents, The University of Texas System, priority 2007, dated 2012).

Data set [1] deals with BxPC-3 cells. Description: Flow cytometry to measure apoptosis in BxPC-3 cells. Type of data set: cell-based. As to conditions: 48 hours. The protocol: BxPC-3 cells were treated with cromolyn (10 μM) with (+) or without (−) gemcitabine (10 μM), and apoptosis was analyzed after 48 hours by flow cytometry. *, P<0.001 versus control, #, P=0.001 versus gemcitabine. Means and 95% confidence intervals of three independent experiments performed in triplicate are shown. Two-tailed two-sample (unpaired) Student's t-tests were used to determine P values. Standard propidium iodide (PI) staining by the hypotonic lysis method was used for apoptosis studies. Apoptosis was induced in 1.0×10^6 BxPC-3 cells by treatment with gemcitabine (10 μM), with or without cromolyn. After 48 hours the cells were detached from culture dishes by incubation in 0.05% trypsin-EDTA, washed once with cold PBS, and then incubated for 30 minutes in 500 μL of hypotonic solution (0.1% sodium citrate, 0.1% Triton X-100, 100 μg/mL RNAse, and 50 μg/mL PI), and analyzed by flow cytometry (EPICS XL, Beckman Coulter Inc, Fullerton, Calif.). Cells undergoing apoptosis that had lost part of their DNA were identified as the population of cells with sub-G1 DNA content. These assays were performed three times.
(Flow cytometry measures light scatter and fluorescence of single cells or particles in a stream.)

The test system of data set [2] is BxPC-3 orthotopic tumors. Briefly: Tumor growth and metastasis in scid mice, BxPC-3 orthotopic. Type of data set: in vivo. The note with it: for lung metastasis, mean: control mean=5.5×10^8; for tumor burden (primary tumor volume by bioluminescence), mean: end of six weeks, cromolyn 5 mg per kg daily i.p., gemcitabine 125 mg per kg bi-weekly i.p., control mean=1.6×10^9. The protocol: BxPC-3 cells stably expressing the firefly luciferase gene were injected orthotopically into 4 week old male CB 17 scid mice. […] Mice were divided into four groups of five mice each with an equivalent mean tumor size between groups. […] One group was treated with water (control), one group received gemcitabine bi-weekly (125 mg kg body weight bi-weekly by intraperitoneal injection), one group was administered cromolyn daily (5 mg per kg body weight daily by intraperitoneal injection), and the final group was given the combination of daily cromolyn and bi-weekly gemcitabine. All groups were treated for six weeks. Bioluminescent imaging was done weekly to assess tumor growth. […] Means and 95% confidence intervals are shown. (n=20). Two-tailed two-sample (unpaired) Student's t-tests were used to determine P values. The anti-tumorigenic capability of the drug cromolyn was assessed in 4-week-old male CB 17 scid mice (n=20) carrying orthopic tumors of BxPC-3, MPanc96, and Panc-1 cells stably expressing a Lenti-luc reporter. All mouse experiments were reviewed and approved by the Institutional Animal Care and Use Committee of UT MD Anderson Cancer Center. All mice were maintained in a sterile environment. Cages, bedding, food, and water were all autoclaved. All mice were maintained on a daily 12-hour light/12-hour dark cycle, according to the institutional animal welfare guidelines. BxPC-3, MPanc96, and Panc-1 cells carrying the Lenti-luc reporter gene were grown to 80% confluence, harvested by incubation with trypsin-EDTA, washed twice in PBS, and resuspended to a final concentration of 4.0×10^6 cells/mL. Each mouse (n=20 mice per cell line) was injected (into the pancreas) with cell suspensions (50 μL). […] This initial tumor volume was used to divide the mice into four groups of five mice each, such that the mean tumor size was equal between groups (FIGS. 4A, 5A, and 6A). To allow enough time to observe differences among treatment groups, the mice were followed for the next 5 weeks. One group of mice was then treated biweekly with a sub-maximal concentration of gemcitabine (125 mg per kg body weight by i.p. injection). A second group was treated with a daily injection of cromolyn (5 mg per kg body weight by i.p. injection). A third group was treated with both bi-weekly gemcitabine and daily cromolyn. The control group was treated daily with vehicle. Treatments were continued for 5 weeks, and the effects on the tumor burden and metastasis were analyzed by weekly bioluminescence imaging (FIGS. 4B, 5B, and 6B). At the end of the experiment the mice were anesthetized with 1.5% isofluorane/air mixture and killed by cervical dislocation. […] Before imaging, mice were placed in an acrylic chamber, anesthetized with 1.5% isofluorane/air mixture, and injected i.p. with 15 mg/mL of luciferin potassium salt in PBS at a dose of 150 mg per kg body weight. A digital grey scale image of each mouse was acquired, followed by acquisition and overlay of a pseudocolor image representing the spatial distribution of detected photons emerging from active luciferase within the mouse. Tumor volume was quantified as the sum of all detected photons within the region of the tumor per second. At the end of experiment, the mice were killed, and tumors were surgically removed and weighed. After the primary tumors were removed, cancer cell dissemination and metastasis was visualized using IVIS imaging, and metastatic colonies were counted. Subsequently, tissues were fixed with formaldehyde, and histology was used to verify the accuracy of the bioluminescence data.

SMILES strings stand for the structures. Values joined by “and” are separate entries in the source; they are usually repeats but may differ in a detail not shown here. Equal values may be shown once.

`O=C(O)c1cc(=O)c2c(OCC(O)COc3cccc4oc(C(=O)O)cc(=O)c34)cccc2o1` [cromolyn, disodium 1,3-bis[(2′-carboxylatochromon-5′-yl)oxy]-2-hydroxypropane]: in data set [1] (cromolyn 10 μM), the “effect on BxPC-3 cell apoptosis, cromolyn alone” value is reported as “no statistically significant effect”. Moreover, in data set [2] (BxPC-3), the “lung metastasis, difference versus control” value is 3.9×10^8 photons/sec; the “tumor burden, difference versus control” value is 1.2×10^9 photons/sec; the “lung metastasis, mean” value is 1.6×10^8 photons/sec; the “tumor burden (primary tumor volume by bioluminescence), mean” value was 4.4×10^8 photons/sec. Besides, the “effect on body weight” value in data set [2] (BxPC-3 model, up to 6 weeks) is listed as “no effect on body weight”.
Take `Nc1ccn([C@@H]2O[C@H](CO)[C@@H](O)C2(F)F)c(=O)n1` [gemcitabine]: the “apoptotic BxPC-3 cells, mean” value in data set [1] (gemcitabine 10 μM, cromolyn 10 μM, control mean=3.7%) was 31.0% and 30.8%. Further, the “apoptotic BxPC-3 cells, difference versus control” value in data set [1] (gemcitabine 10 μM) was 27.3%. In data set [2] (BxPC-3), the “tumor burden, difference versus control” value is 6.8×10^8 photons/sec; the “lung metastasis, mean” value was 3.9×10^8 photons/sec; the “tumor burden (primary tumor volume by bioluminescence), mean” value is recorded as 9.2×10^8 photons/sec. In data set [2] (BxPC-3, versus control), the “effect on liver metastasis” value was “did not reduce metastasis” and the “effect on lung metastasis” value is reported as “did not reduce metastasis”. The “body weight, difference versus control” value in data set [2] (BxPC-3 model) is 3.9 g. The “body weight at the end of the experiment, mean” value in data set [2] (BxPC-3 model, control mean=31.1) is on record as 27.2 g.
